In brackets after ≈: the same amount, converted by molar mass. Several values for one entry are separate records, joined by “and”; a condition that tells them apart may be missing. Equal values may be shown once. Read-outs that look alike come from different tables or passages of the source. Square brackets hold non-standard residues; d marks the D form. Peptide text beside a SMILES is read from it. * marks the point of attachment. dPhe(4-Cl) = N[C@H](Cc1ccc(Cl)cc1)C(=O)O; d2Nal = N[C@H](Cc1ccc2ccccc2c1)C(=O)O; Lys(iPr) = CC(C)NCCCC[C@H](N)C(=O)O; d3Pal = N[C@H](Cc1cccnc1)C(=O)O; Nicotinoyl = O=C(c1cccnc1)*
Experiments:
[1] = Solubilisation studies (visual appearance and RP-HPLC solubility after equilibration overnight at 25°C); assay type: physicochemical
Protocol: (§1) RP-HPLC gradient elution, C-18 (e.g. Vydac 218 TP54, 250 x 4.6 mm) column. UV detection at 215 nm, injection volume 15 µl mobile phase A: pH 4.5 phosphate buffer (0.1M), mobile phase B: acetonitrile, flow rate = 1.0 ml/min, runtime = 23 min. External standard solution concentrations of 100 µg/ml were injected during analysis. The gradient was: 77% A, 23% B to 52% A, 48% B […].
Solubilisation studies were carried out to study the effect of: • pH (solutions were acidified with either acetic acid or hydrochloric acid) • hydrotropic agents (nicotinamide, sodium saccharin, sodium salicylate, sodium benzoate, histidine hydrochloride, thiamine hydrochloride, phenylalanine).
Saline used in these studies corresponds to 0.9% sodium chloride solution.
Following the visual analysis, a number of solutions were selected for further quantitative determination of the solubility by filtration (0.45 µm filters) and appropriate dilution using the RP-HPLC method described above.

[2] = Stability of nicotinamide/antide formulations (chemical compatibility); assay type: physicochemical; settings: pH 5
Protocol: as §1
Four formulations of antide and nicotinamide at different concentration ratios and adjusted to pH 5 were prepared and tested over 3 months at +40°C, +25°C and +4°C.
Chromatographic traces of antide were identical to those of the standard, with the addition of the early eluting nicotinamide peak which appeared at a retention tune of 3.2 minutes.

- solubility thermodynamic ([1]; 0.9% NaCl solution (saline), saline or isotonic, 0.9% NaCl solution): 25 µg/mL (≈ 15.7 µM)
- Solubility ([1]; 1% acetic acid in saline, 5 mg/ml antide added, pH 3.12, not quantified, read-out: drug solubility): < 5000 µg/mL
- solubility thermodynamic ([1]; WFI (water for injection), pH 4.4, water, WFI, nominal amount added 10 mg/ml, pH 4.40): 8130 µg/mL (≈ 5110 µM)
- Solubility ([1]; WFI (water for injection), water, WFI, nominal amount added 1 mg/ml, pH 5.00, read-out: Solubility): ≥ 1000 µg/mL
- Solubility ([1]; WFI, nominal amount added 10 mg/ml, pH 4.40): 8100 µg/mL (≈ 5090 µM)
- solubility thermodynamic ([1]; phosphate buffered saline, aqueous buffer): 16 µg/mL (≈ 10.1 µM)
- Solubility ([1]; saline + 15% nicotinamide, nominal amount added 5 mg/ml, pH 5.79 (Table 9)): 3300 µg/mL and 3320 µg/mL
- Solubility ([1]; saline + 15% sodium benzoate, nominal amount added 5 mg/ml, pH 6.69): 72 µg/mL
- Solubility ([1]; saline + 15% sodium salicylate, nominal amount added 5 mg/ml, pH 5.81): 210 µg/mL
- Solubility ([1]; saline + 15% thiamine hydrochloride, nominal amount added 5 mg/ml, pH 3.30): 3000 µg/mL and 3010 µg/mL
- Solubility ([1]; saline + histidine hydrochloride (5%), nominal amount added 5 mg/ml, pH 4.17): 76 µg/mL
- Solubility ([1]; saline + nicotinamide 10%, nominal amount added 5 mg/ml, pH 5.68): 1400 µg/mL
- Solubility ([1]; saline + nicotinamide 15%, nominal amount added 5 mg/ml, pH 5.76 (Table 10)): 3230 µg/mL
- Solubility ([1]; saline + nicotinamide 20%, nominal amount added 10 mg/ml, pH 5.64): 8500 µg/mL and 8490 µg/mL
- Solubility ([1]; saline + phenylalanine (1.7%), nominal amount added 5 mg/ml, pH 4.59): 66 µg/mL
- solubility thermodynamic ([1]; saline acidified with acetic acid, pH 3.01, saline or isotonic, nominal amount added 10 mg/ml, pH 3.01): 2200 µg/mL (≈ 1380 µM)
- Solubility ([1]; saline acidified with acetic acid, nominal amount added 10 mg/ml, pH 3.01): 2230 µg/mL (≈ 1400 µM)
- solubility thermodynamic ([1]; saline, pH 5.04, saline or isotonic, nominal amount added 1 mg/ml, natural pH 5.04): 25 µg/mL (≈ 15.7 µM)
- Stability of nicotinamide/antide formulations ([2]; antide 1 mg/ml, nicotinamide 5%, +4°C, 4W): 0.9
- Stability of nicotinamide/antide formulations ([2]; antide 1 mg/ml, nicotinamide 5%, +4°C, 12W): 1.0
- Stability of nicotinamide/antide formulations ([2]; antide 1 mg/ml, nicotinamide 5%, +25°C, 1W): 0.9
- Stability of nicotinamide/antide formulations ([2]; antide 1 mg/ml, nicotinamide 5%, +25°C, 4W): 0.9
- Stability of nicotinamide/antide formulations ([2]; antide 1 mg/ml, nicotinamide 5%, +25°C, 12W): 1.0
- Stability of nicotinamide/antide formulations ([2]; antide 1 mg/ml, nicotinamide 5%, +40°C, 1W): 1.0
- Stability of nicotinamide/antide formulations ([2]; antide 1 mg/ml, nicotinamide 5%, +40°C, 4W): 0.9
- Stability of nicotinamide/antide formulations ([2]; antide 1 mg/ml, nicotinamide 5%, +40°C, 12W): 1.0
- Stability of nicotinamide/antide formulations ([2]; antide 1 mg/ml, nicotinamide 5%, T=0): 1.0
- Stability of nicotinamide/antide formulations ([2]; antide 1 mg/ml, nicotinamide 25%, +4°C, 4W): 1.0
- Stability of nicotinamide/antide formulations ([2]; antide 1 mg/ml, nicotinamide 25%, +4°C, 12W): 1.1
- Stability of nicotinamide/antide formulations ([2]; antide 1 mg/ml, nicotinamide 25%, +25°C, 1W): 1.0
- Stability of nicotinamide/antide formulations ([2]; antide 1 mg/ml, nicotinamide 25%, +25°C, 4W): 1.0
- Stability of nicotinamide/antide formulations ([2]; antide 1 mg/ml, nicotinamide 25%, +25°C, 12W): 1.1
- Stability of nicotinamide/antide formulations ([2]; antide 1 mg/ml, nicotinamide 25%, +40°C, 1W): 1.0
- Stability of nicotinamide/antide formulations ([2]; antide 1 mg/ml, nicotinamide 25%, +40°C, 4W): 1.0
- Stability of nicotinamide/antide formulations ([2]; antide 1 mg/ml, nicotinamide 25%, +40°C, 12W): 1.1
- Stability of nicotinamide/antide formulations ([2]; antide 1 mg/ml, nicotinamide 25%, T=0): 1.0
- Stability of nicotinamide/antide formulations ([2]; antide 10 mg/ml, nicotinamide 5%, +4°C, 1W): 10.3
- Stability of nicotinamide/antide formulations ([2]; antide 10 mg/ml, nicotinamide 5%, +4°C, 4W): 10.0
- Stability of nicotinamide/antide formulations ([2]; antide 10 mg/ml, nicotinamide 5%, +4°C, 12W): 10.5
- Stability of nicotinamide/antide formulations ([2]; antide 10 mg/ml, nicotinamide 5%, +25°C, 4W): gel
- Stability of nicotinamide/antide formulations ([2]; antide 10 mg/ml, nicotinamide 5%, +25°C, 12W): gel
- Stability of nicotinamide/antide formulations ([2]; antide 10 mg/ml, nicotinamide 5%, +40°C, 4W): gel
- Stability of nicotinamide/antide formulations ([2]; antide 10 mg/ml, nicotinamide 5%, +40°C, 12W): gel
- Stability of nicotinamide/antide formulations ([2]; antide 10 mg/ml, nicotinamide 5%, T=0): 9.7
- Stability of nicotinamide/antide formulations ([2]; antide 10 mg/ml, nicotinamide 25%, +4°C, 4W): 10.1
- Stability of nicotinamide/antide formulations ([2]; antide 10 mg/ml, nicotinamide 25%, +25°C, 1W): 9.8
- Stability of nicotinamide/antide formulations ([2]; antide 10 mg/ml, nicotinamide 25%, +25°C, 4W): 9.5
- Stability of nicotinamide/antide formulations ([2]; antide 10 mg/ml, nicotinamide 25%, +25°C, 12W): 11.1
- Stability of nicotinamide/antide formulations ([2]; antide 10 mg/ml, nicotinamide 25%, +40°C, 1W): 10.7
- Stability of nicotinamide/antide formulations ([2]; antide 10 mg/ml, nicotinamide 25%, +40°C, 4W): 9.4
- Stability of nicotinamide/antide formulations ([2]; antide 10 mg/ml, nicotinamide 25%, +40°C, 12W): 10.2
- Stability of nicotinamide/antide formulations ([2]; antide 10 mg/ml, nicotinamide 25%, T=0): 9.8
SMILES: CC(=O)N[C@H](Cc1ccc2ccccc2c1)C(=O)N[C@H](Cc1ccc(Cl)cc1)C(=O)N[C@H](Cc1cccnc1)C(=O)N[C@@H](CO)C(=O)N[C@@H](CCCCNC(=O)c1cccnc1)C(=O)N[C@H](CCCCNC(=O)c1cccnc1)C(=O)N[C@@H](CC(C)C)C(=O)N[C@@H](CCCCNC(C)C)C(=O)N1CCC[C@H]1C(=O)N[C@H](C)C(N)=O [antide] (Ac-[d2Nal][dPhe(4-Cl)][d3Pal]SK(Nicotinoyl)[dK](Nicotinoyl)L[Lys(iPr)]P[dA]-NH2)
- Stability of nicotinamide/antide formulations ([2]; antide 10 mg/ml, nicotinamide 5%, +25°C, 1W): increased viscosity with precipitate formation and gel
- Stability of nicotinamide/antide formulations ([2]; antide 10 mg/ml, nicotinamide 5%, +40°C, 1W): increased viscosity with precipitate formation and gel

Source: patent publication EP0880968A1, “Pharmaceutical compositions of peptides having low solubility in physiological medium” (Applied Research Systems ARS Holding N.V., priority 1997, dated 1998)
